Results: PMC5501782 (Scientific Reports, 2017)
“Also recorded” adds a separate entry of the source. Non-standard residues stand in square brackets, D forms with d. Residues, ends and D or L forms follow the SMILES beside them.

Columns and labels:
[1] = tested on: Influenza virus (H9N2) A/Chicken/Korea/116/2004; conditions: 48 h
[2] = tested on: Respiratory Syncytial Virus; conditions: 48 h
[3] = tested on: PR8-GFP virus; format: cell-based, influenza A virus
[4] = tested on: Influenza virus (H1N1) A/Puerto Rico/8/34; conditions: Influenza virus A/Puerto Rico/8/34, 48 h
[5] = tested on: Vesicular stomatitis virus; conditions: 48 h
[6] = tested on: Influenza virus (H5N2) A/bird/Korea/W81/2005; conditions: Influenza virus A/bird/Korea/W81/2005, 48 h
[7] = tested on: Parainfluenza virus; conditions: 48 h
[8] = tested on: VSV (293T cells); format: cell-based, vesicular stomatitis virus
[9] = tested on: Enterovirus71; format: cell-based
[10] = tested on: Herpes simplex virus; conditions: 48 h
[11] = tested on: Influenza virus (H7N3) A/Aquatic bird/Korea/W44/2005; conditions: 48 h
[12] = tested on: PR8-GFP virus; design: species or system influenza A virus
[13] = tested on: MDCK cells
[14] = tested on: Coxsakievirus; format: cell-based
[15] = tested on: Porcine epidemic diarrhea virus; conditions: 48 h
[16] = tested on: RSV (Hep2 cells); format: cell-based, respiratory syncytial virus
[17] = tested on: influenza virus (A/Puerto Rico/8/34, PR8) expressing green fluorescent protein (PR8-GFP); format: cell-based
[18] = tested on: A/EM/Korea/W149/06 (W149, HPAI, H5N1); conditions: mouse, in vivo
[19] = tested on: Coxsackievirus (HeLa cells); format: cell-based
[20] = tested on: Newcastle disease virus; conditions: 48 h
[21] = tested on: autophagy; conditions: cited from earlier work

Q: With CC(C)C[C@@H](NC(=O)[C@@H](CC(C)C)NC(=O)[C@@H](CC(N)=O)NC(=O)[C@H](NC(=O)[C@@H](Cc1ccccc1)NC(=O)CNC(=O)[C@@H](Cc1ccc(O)cc1)NC(=O)CNC(=O)[C@@H](CCCNC(=N)N)NC(=O)[C@@H](CCCCN)NC(=O)[C@@H](CCCCN)NC(=O)[C@@H](CCCNC(=N)N)NC(=O)[C@@H](CCCNC(=N)N)NC(=O)[C@@H](CCC(N)=O)NC(=O)[C@@H](CCCNC(=N)N)NC(=O)[C@@H](CCCNC(=N)N)NC(=O)[C@H](N)CCCNC(=N)N)C(C)C)C(=O)N[C@H](Cc1ccccc1)C(=O)N[C@H](CC(C)C)C(=O)N[C@@H](C(=O)N[C@@H](C(=O)N[C@H](CCC(=O)O)C(=O)O)C(C)C)C(C)C [TAT-Kα2] (H-[dR][dR][dR][dQ][dR][dR][dK][dK][dR]G[dY]G[dF][dV][dN][dL][dL][dF][dL][dV][dV][dE]-OH) as the molecule, how does the IC50 [1] read?
A: Its IC50 is 0.7 µM.

Q: And the IC50 [2]?
A: The IC50 was 3.4 µM.

Q: What about the virus transmission [3] of the same molecule?
A: The virus transmission was “suppressed”.

Q: What about the IC50 [4] of the same molecule?
A: The IC50 was 0.5 µM.

Q: What about the IC50 [5] of the same molecule?
A: Its IC50 is 2.9 µM.

Q: What about the IC50 [6] of the same molecule?
A: Its IC50 is 0.8 µM.

Q: And the IC50 [7]?
A: The IC50 was 2.4 µM.

Q: What about the inhibition of infection [8] of the same molecule?
A: Its inhibition of infection is “inhibited”.

Q: What about the IC50 [9] of the same molecule?
A: The IC50 was “No”.

Q: What about the virucidal effect [9] of the same molecule?
A: The virucidal effect was “did not show any virucidal effects”.

Q: What about the IC50 [10] of the same molecule?
A: Its IC50 is 5.7 µM.

Q: And the IC50 [11]?
A: Its IC50 is 1.2 µM.

Q: And the “infectivity of virus in positive fractions in vitro” value [12]?
A: The value was “did not”.

Q: And the “cytotoxicity or CPE” value [13]?
A: The value was “no cytotoxicity or CPE”.

Q: And the IC50 [14]?
A: Its IC50 is “No”.

Q: What about the IC50 [15] of the same molecule?
A: Its IC50 is 3.5 µM.

Q: And the inhibition of infection [16]?
A: The inhibition of infection was “inhibited”.

Q: And the “antiviral action at attachment step” value [17]?
A: The value was “inhibition of virus infection”.

Q: And the “antiviral action at post-attachment step” value [17]?
A: The value was “unable to inhibit virus infection”.

Q: And the “antiviral action at pre-attachment step” value [17]?
A: Its value is “antiviral activity”.

Q: What about the “infection of MDCK cells by peptide-treated PR8-GFP” value [17] of the same molecule?
A: Its value is “strongly diminished”.

Q: And the “infectivity of PR8-GFP virus” value [17]?
A: Its value is “dramatically suppressed; also recorded: no viral infection was detected”.

Q: What about the “reduction in the virus titer” value [17] of the same molecule?
A: Its value is “approximately 40%”.

Q: And the “difference in body weight percentage among groups” value [18]?
A: The value was “more than 20%”.

Q: What about the lung histopathology [18] of the same molecule?
A: Its lung histopathology is “intact lung tissues”.

Q: What about the lung virus titer [18] of the same molecule?
A: The lung virus titer was “no virus was detected”.

Q: And the survival rate [18]?
A: The survival rate was 100%.

Q: And the virucidal effect [19]?
A: Its virucidal effect is “did not show any virucidal effects”.

Q: What about the IC50 [20] of the same molecule?
A: The IC50 was 0.8 µM.

Q: With EVVLFLLNVF [Kα2] as the molecule, how does the autophagy induction [21] read?
A: Its autophagy induction is “robust autophagy inducer”.
